Test results reported in PMC11040665, “Aminothiazolone Inhibitors Disrupt the Protein–RNA Interaction of METTL16 and Modulate the m^6A RNA Modification” (JACS Au, 2024).

Tests used:
MDA-MB-231 cells = assay: Colony formation assay; type: cell-based, human; details: 7 days, three tested concentrations
Procedure: MDA-MB-231 cells were collected and seeded with the density of 1000 cells per well into 24-well plates; after being cultured overnight, the medium was exchanged and treated with indicated compounds or DMSO (0.5%) as the control. The medium change and treatment were performed every 3 days. After 7 days, the cell culture medium was discarded, and cells were washed with PBS and fixed with 4% paraformaldehyde solution at room temperature for 15 min; the paraformaldehyde solution was removed, and cells were washed with PBS again to remove the paraformaldehyde. Then cells were stained with 0.1% (w/v) crystal violet. After staining for 15 min, the cells were washed with H2O to remove the extra dye and then photographed.

METTL16 (1-291) = molecular target: T1, METTL16 (1-291) (Homo sapiens, UniProt Q86W50); assay: Covalent binding evaluation by protein LC–MS; details: 30 μM METTL16 (1-291), 100 μM compound, 30 or 150 min
T1 construct: METTL16 MTD (1–291) was subcloned to pOPINB plasmid; His tag followed by HRV 3C cleavage site (N, cleaved yes); made in house; host or cells: E. coli Rosetta (DE3)
T1 sequence (Q86W50 1-291): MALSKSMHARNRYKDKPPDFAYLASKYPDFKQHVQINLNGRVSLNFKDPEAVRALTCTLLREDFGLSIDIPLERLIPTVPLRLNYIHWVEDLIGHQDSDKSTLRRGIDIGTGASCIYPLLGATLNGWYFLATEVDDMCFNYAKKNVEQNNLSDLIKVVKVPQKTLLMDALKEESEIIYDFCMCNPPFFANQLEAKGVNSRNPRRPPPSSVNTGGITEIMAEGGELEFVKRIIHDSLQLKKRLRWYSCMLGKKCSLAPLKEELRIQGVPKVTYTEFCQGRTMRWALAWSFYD
Procedure: To evaluate whether the aminothiazolones covalently bind to METTL16, we performed the LC–MS analysis after incubating the protein with aminothiazolones for 30 and 150 min, respectively. In the case of covalent binding, we would expect to observe the formation of covalent adducts, which would accrue over time. […] Besides the LC–MS analysis result, an irreversible inhibition counter screening indicated the reversible inhibitory activity of the aminothiazolones (Figure S8A).
Figure S7. Covalent evaluation of METTL16 inhibitors via LC-MS. (A) Deconvoluted mass spectrum of 30 µM METTL16 (1-291) incubated with 1% DMSO for 30 min (left) and 150 min (right). (B), (C), (D) Deconvoluted […]
(right). Expected Mass for METTL16 (1-291), 33455.7 Da. The observed small mass shift of ~50 Da appeared in both the DMSO control and compound-treated samples was probably formed by the solvent used in the LC-MS.
(1 picture or pasted object on this page, not shown here)
For computational docking analysis of aminothiazolones to the RNA binding site of METTL16 (PDB code: 6B91)2 Schrödinger® Maestro 12.3 was used. […]
Chemical states were generated with the ligand preparation module and METTL16 conformation with the protein preparation module. […] The glide dock module was used and the results were evaluated according to interactions between small molecules and METTL16, small molecule orientations, docking scores and solvent exposure patterns. […]
METTL16 MTD protein was diluted in SEC buffer (20mM pH 7.5, 200 mM NaCl, 0.5 mM TCEP,5% v/v glycerol) to a final concentration of 30 µM, and incubated with DMSO or 100 μM compound (final 1% DMSO) at room temperature. After incubation (30 min or 150 min), the samples were analyzed on an Agilent 1260 II Infinity system equipped with an electrospray ion source in positive mode, run through a Desalting cartridge (AdvanceBio Desalting-RP, 2.1 mm, 12.5mm, Agilent) with a gradient of 5-80% HPLC-grade acetonitrile (+ 0.1% TFA) in HPLC-grade water (+ 0.1% TFA) (flowrate: 0.4 mL/min, runtime: 6 min). […]

[1] = molecular target: T2, METTL16 MTD–U6 snRNA Δ interaction (Homo sapiens, UniProt Q86W50); assay: FP assay with Cy5-labeled U6 snRNA Δ; type: binding
T2 construct: METTL16 MTD (1–291) was subcloned to pOPINB plasmid; His tag followed by HRV 3C cleavage site (N, cleaved yes); made in house; host or cells: E. coli Rosetta (DE3)
T2 sequence (Q86W50 1-291): T1 sequence (Q86W50 1-291)

His-tagged METTL16 MTD = molecular target: T3, His-tagged METTL16 MTD (Homo sapiens, UniProt Q86W50); assay: switchSENSE biosensor assay; type: binding; details: potassium salt of compound 45 was used
T3 construct: His-tagged METTL16 (1–291) was purified using the same protocol, without protease cleavage; made in house; host or cells: E. coli Rosetta (DE3)
T3 sequence (Q86W50 1-291): T1 sequence (Q86W50 1-291)
Procedure: The biosensor assay was performed using a heliX instrument (Dynamic Biosensors) with a heliX adapter chip. The His-capture kit (HK-NTA-1) was used to functionalize and regenerate the chip. 100 nM His-tagged METTL16 MTD was captured to the surface and regenerated with imidazole solution (250 mM in 10 mM Tris, pH 7.4, 140 mM NaCl, 0.05% Tween 20, 50 μM EDTA, 50 μM EGTA) each time after measurement. PE140 buffer was used as the running buffer (10 mM Na2HPO4/NaH2PO4, pH 7.4, 140 mM NaCl, 0.05% Tween 20, 50 μM EDTA) and 0.2% DMSO was used as concertation 0. The association and dissociation flow rates were 200 μL/min, with an association time of 90 s and a dissociation time of 120 s. Data were analyzed using heliOS using the ‘kinetics mono- & biphasic-free amplitudes fitting’ mode.

[2] = molecular target: T4, METTL16 (1-291)–FAM-MAT2A-hp1 RNA (Homo sapiens, UniProt Q86W50); assay: FP assay after incubating SAM with METTL16; type: binding; details: SAM incubated with METTL16 before the FP assay
T4 construct: METTL16 MTD (1–291) was subcloned to pOPINB plasmid; His tag followed by HRV 3C cleavage site (N, cleaved yes); made in house; host or cells: E. coli Rosetta (DE3)
T4 sequence (Q86W50 1-291): T1 sequence (Q86W50 1-291)

[3] = molecular target: T5, METTL16–MAT2A-hp1 mRNA interaction (METTL16 MTD 1–291, FAM-labeled MAT2A-hp1 RNA) (Homo sapiens, UniProt Q86W50); assay: Fluorescence polarization (FP) assay, disruption of METTL16 binding to FAM-MAT2A-hp1 RNA
T5 sequence (Q86W50 1-291): T1 sequence (Q86W50 1-291)
Procedure: The binding of METTL16 to the FAM-labeled RNA probe formed a complex that led to a higher FP signal in comparison to that of the unbound RNA probe (Figure 2A). […] The Z-factor of 0.91 indicated the suitability of the assay condition (Figure S2D). […] In both FP assay and EMSA, a final concentration of 50 nM METTL16 and 5 nM FAM-MAT2A-hp was used. The METTL16 MTD (amino acids 1–291) was used in this study unless specifically indicated otherwise.
The FP assay was performed using 384-well black plates (Corning #4514) in a total reaction volume of 20 μL, with the final concentration of protein and RNA being 50 and 5 nM respectively. Compounds were diluted in FP buffer and incubated with protein for 30 min at room temperature, then FAM-MAT2A-hp1 RNA probe was added and the fluorescence polarization was measured using a TECAN Spark plate reader, under the excitation wavelength of 485 nm and the emission wavelength of 535 nm with bandwidth of 20 nm. 1% DMSO was used as the control. The inhibition was calculated with the equation: inhibition = 100%(Control – X)/(Control – Blank); Control: DMSO with protein and FAM-RNA; Blank: DMSO with FAM-RNA; X: compound with protein and FAM-RNA. The IC50 value was further determined using GraphPad Prism 9. […] The polarization was measured under an excitation wavelength of 630 nm and an emission wavelength of 680 nm with a bandwidth of 20 nm.

| Structure (SMILES) | inhibition on colony formation, in words (MDA-MB-231 cells) | covalent adduct formation with METTL16 (LC–MS) (METTL16 (1-291)) | IC50 [1] [nM] | KA, biosensor assay (His-tagged METTL16 MTD) [M^-1] | Kd (His-tagged METTL16 MTD) [nM] | IC50 under different SAM concentrations (FP assay), in words [2] | IC50 [3] [nM] |
| --- | --- | --- | --- | --- | --- | --- | --- |
| CN1C(=O)C(=C2SC(NS(=O)(=O)c3ccc(C(=O)O)cc3)=NC2=O)c2cc(Br)ccc21 [Compound 45] | did not show obvious inhibition on colony formation | no such covalent adduct with a mass shift was observed | 2500 | 7.43 ± 0.84E+5 | 1350 | remained | 1700 |
| O=C1N=C(NS(=O)(=O)c2ccc(C(=O)O)cc2)SC1=C1C(=O)Nc2ccc(Br)cc21 [Compound 47] | mild inhibitory activity against colony formation | no such covalent adduct with a mass shift was observed | 6400 | 5.67 ± 0.48E+5 | 1760 | remained | 2100 |
